According to patent US20240415114A1, “AGROCHEMICAL FORMULATIONS FOR MITIGATING CRYSTALLIZATION” (SYNGENTA CROP PROTECTION AG, priority 2021, published 2024):

Columns and labels:
[1] = Solubility of fludioxonil in various vegetable oils; format: physicochemical; details: 5C, 25C and 50C, FIG. 1
Experimental: 0.5 g of fludioxonil technical was mixed separately with 5 g of various oils (peanut oil, castor oil, cottonseed oil, olive oil, canola oil, linseed oil, sunflower oil, safflower oil, corn oil, and soybean oil) and incubated at 3 different temperatures (5C, 25C and 50C). The mixtures were then centrifuged and the clear oil supernatant was recovered and analyzed for fludioxonil content.

[2] = Crystallization study of formulation containing fludioxonil (storage, 325 mesh sieve residue); format: physicochemical; details: 2 weeks Condition 1 then 2 weeks at 25° C. or 5° C., FIG. 3
Experimental: A formulation containing 0.72% w/w fludioxonil, 0.72% w/w picarbutrazox, 1.43% w/w sedaxane, 4.30% w/w thiabendazole and 1.07% w/w mefenoxam was prepared with castor oil or MK 116 Wax or soybean oil as the flow aid. Castor oil loading was maintained at 10% w/w. MK 116 wax loading was maintained at 5% w/w, whereas soybean oil concentration was varied over a range of 5-12% w/w. The formulation was aliquoted into 50 g samples and placed at temperatures of 50° C., 45° C. 38° C., a freeze thaw cycle going from 50° C. to −10° C. and at 25° C. These formulations were stored for 2 weeks at the indicated conditions (Condition 1), after which they were removed and placed at 25° C. or 5° C. for 2 weeks (Condition 2). After completion of the storage regime, the formulations were diluted with 200 mL of water and poured through a 325 mesh sieve. The residue was collected and analysed for the presence of fludioxonil.

N#Cc1c[nH]cc1-c1cccc2c1OC(F)(F)O2 [fludioxonil]
solubility of fludioxonil in oil ([1]; all other oils (peanut, cottonseed, olive, canola, linseed, sunflower, safflower, corn, soybean)): essentially the same solubilities
solubility of fludioxonil in oil ([1]; castor oil): significantly improved solubility
loss of fludioxonil (fludioxonil content of sieve residue) ([2]; MK 116 wax 5% w/w as flow aid): resulted in loss of fludioxonil
loss of fludioxonil (fludioxonil content of sieve residue) ([2]; castor oil 10% w/w as flow aid): did not
loss of fludioxonil (fludioxonil content of sieve residue) ([2]; soybean oil 5-12% w/w as flow aid): resulted in loss of fludioxonil
